Measured values: patent US9694016B2 (Novartis AG, priority 2013, dated 2017)

target: b-Raf (V600E) (Homo sapiens (Human), UniProt P15056, V600E); settings: read-out: b-Raf IC-50
Sequence (P15056 whole entry V600E): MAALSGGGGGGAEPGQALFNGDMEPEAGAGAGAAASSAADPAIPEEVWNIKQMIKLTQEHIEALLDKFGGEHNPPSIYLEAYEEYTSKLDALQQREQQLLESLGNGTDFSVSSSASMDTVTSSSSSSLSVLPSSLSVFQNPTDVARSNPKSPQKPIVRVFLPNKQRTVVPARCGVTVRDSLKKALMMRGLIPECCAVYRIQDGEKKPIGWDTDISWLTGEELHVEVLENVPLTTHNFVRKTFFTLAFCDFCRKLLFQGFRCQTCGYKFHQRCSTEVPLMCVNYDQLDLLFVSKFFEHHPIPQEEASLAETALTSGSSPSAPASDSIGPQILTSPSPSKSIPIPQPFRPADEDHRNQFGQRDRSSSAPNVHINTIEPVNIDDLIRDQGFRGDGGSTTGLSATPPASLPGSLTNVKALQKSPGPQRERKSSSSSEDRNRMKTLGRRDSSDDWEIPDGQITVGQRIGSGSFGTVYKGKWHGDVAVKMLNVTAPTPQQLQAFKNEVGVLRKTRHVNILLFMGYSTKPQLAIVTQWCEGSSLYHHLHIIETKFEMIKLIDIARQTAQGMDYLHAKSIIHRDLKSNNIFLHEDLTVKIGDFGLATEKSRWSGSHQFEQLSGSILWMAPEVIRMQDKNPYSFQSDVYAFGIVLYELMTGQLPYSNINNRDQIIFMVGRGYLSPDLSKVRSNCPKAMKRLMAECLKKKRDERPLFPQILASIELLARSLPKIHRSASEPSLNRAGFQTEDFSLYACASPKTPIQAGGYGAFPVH

Compound	IC50
Cc1ccc(NC(=O)c2cc(CN(C)C)cc(C(F)(F)F)c2)cc1-c1cc(N2CCOCC2)c(=O)n(C)c1 [Example 173, 3-((dimethylamino)methyl)-N-(4-methyl-3-(1-methyl-5-morpholino-6-oxo-1,6-dihydropyridin-3-yl)phenyl)-5-(trifluoromethyl)benzamide]	9.2 nM

same assay, conditions: read-out: b-Raf IC-50; AlphaScreen, 60 min pre-incubation, 3 hours reaction

IC50	Compound
0.6 nM	Cc1ccc(NC(=O)c2cccc(C(F)(F)F)c2)cc1-c1nc(N2CCOCC2)c2[nH]ccc2n1 [Example 830, N-(4-methyl-3-(4-morpholino-5H-pyrrolo[3,2-d]pyrimidin-2-yl)phenyl)-3-(trifluoromethyl)benzamide]
1.2 nM	CCOc1ncc(-c2cc(NC(=O)c3cccc(C(F)(F)F)c3)ccc2C)nc1N1CCOCC1 [Example 538, N-(3-(5-ethoxy-6-morpholinopyrazin-2-yl)-4-methylphenyl)-3-(trifluoromethyl)benzamide]
24.9 nM	Cc1ccc(NC(=O)c2cccc(C(C)(C)S(C)(=O)=O)c2)cc1-c1cc(N2CCOCC2)c(=O)n(C)n1 [Example 637, N-(4-methyl-3-(1-methyl-5-morpholino-6-oxo-1,6-dihydropyridazin-3-yl)phenyl)-3-(2-(methylsulfonyl)propan-2-yl)benzamide]
3.5 nM	CCOc1nnc(-c2cc(NC(=O)c3ccc(CN(C)C)c(C(F)(F)F)c3)ccc2C)cc1N1CCOCC1 [Example 576, 4-((dimethylamino)methyl)-N-(3-(6-ethoxy-5-morpholinopyridazin-3-yl)-4-methylphenyl)-3-(trifluoromethyl)benzamide]
1.7 nM	Cc1ncc(NC(=O)c2ccnc(C(C)C)c2)cc1-c1ccc(C#N)c(N2CCOCC2)c1 [Example 686, N-(5-(4-cyano-3-morpholinophenyl)-6-methylpyridin-3-yl)-2-isopropylisonicotinamide]
2.1 nM	Cc1ccc(NC(=O)c2cc(F)cc(N3CCOCC3)c2)cc1-c1cc(N2CCOCC2)n(C)c(=O)c1 [Example 491, 3-fluoro-N-(4-methyl-3-(1-methyl-6-morpholino-2-oxo-1,2-dihydropyridin-4-yl)phenyl)-5-morpholinobenzamide]
6.9 nM	Cc1ncc(NC(=O)c2ccnc(C3CC3)c2)cc1-c1cc(N2CCOCC2)c(=O)n(C)n1 [Example 682, 2-cyclopropyl-N-(6-methyl-5-(1-methyl-5-morpholino-6-oxo-1,6-dihydropyridazin-3-yl)pyridin-3-yl)isonicotinamide]
15.4 nM	Cc1ccc(C(=O)Nc2cccc(-c3nnco3)c2)cc1-c1cc(N2CCOCC2)c(=O)n(C)c1 [Example 437, N-(3-(1,3,4-oxadiazol-2-yl)phenyl)-4-methyl-3-(1-methyl-5-morpholino-6-oxo-1,6-dihydropyridin-3-yl)benzamide]
2.5 nM	CCN1CCN(c2cc(C(=O)Nc3ccc(C)c(-c4cc(N5CCOCC5)n(C)c(=O)c4)c3)cc(C(F)(F)F)c2)CC1 [Example 490, 3-(4-ethylpiperazin-1-yl)-N-(4-methyl-3-(1-methyl-6-morpholino-2-oxo-1,2-dihydropyridin-4-yl)phenyl)-5-(trifluoromethyl)benzamide]

same assay, conditions: read-out: b-Raf IC-50; AlphaScreen, 60 min pre-incubation, reaction 3 hours at room temperature

IC50	Compound
11.6 nM	Cc1ccc(NC(=O)c2ccnc(C(C)(C)C#N)c2)cc1-c1cn2ccnc2c(N2CCOCC2)n1 [Example 860, 2-(2-cyanopropan-2-yl)-N-(4-methyl-3-(8-morpholinoimidazo[1,2-a]pyrazin-6-yl)phenyl)isonicotinamide]
6.7 nM	Cc1ncc(NC(=O)c2ccnc(C(F)F)c2)cc1-c1cc(N2CCOCC2)nc(N2CC(C)(O)C2)c1 [Example 1103, 2-(difluoromethyl)-N-(2′-(3-hydroxy-3-methylazetidin-1-yl)-2-methyl-6′-morpholino-[3,4′-bipyridin]-5-yl)isonicotinamide]
1.75 nM	Cc1ccc(NC(=O)c2ccnc(C(F)(F)F)c2)cc1-c1cnc(OCCO)c(N2CCOCC2)c1 [Example 1002, N-(3-(6-(2-hydroxyethoxy)-5-morpholinopyridin-3-yl)-4-methylphenyl)-2-(trifluoromethyl)isonicotinamide]
0.78 nM	Cc1ccc(NC(=O)c2cc(C(F)(F)F)ccn2)cc1-c1cc(N2CCOCC2)c(S(C)(=O)=O)nn1 [Example 933, N-(4-methyl-3-(6-(methylsulfonyl)-5-morpholinopyridazin-3-yl)phenyl)-4-(trifluoromethyl)picolinamide]
13.7 nM	Cc1ncc(NC(=O)c2cnnc(C3CC3)c2)cc1-c1cc(N2CCOCC2)nc(N2CC(C)(O)C2)c1 [Example 1101, 6-cyclopropyl-N-(2′-(3-hydroxy-3-methylazetidin-1-yl)-2-methyl-6′-morpholino-[3,4′-bipyridin]-5-yl)pyridazine-4-carboxamide]
4.2 nM	COc1ncc(-c2cc(NC(=O)c3cccc(C(F)(F)F)c3)nnc2C)cc1N1CCOCC1 [Example 934, N-(5-(6-methoxy-5-morpholinopyridin-3-yl)-6-methylpyridazin-3-yl)-3-(trifluoromethyl)benzamide]
1.86 nM	Cc1ccc(NC(=O)c2cccc(S(C)(=O)=O)c2)cc1-c1cc(N2CCOCC2)nc(N2CC(C)(O)C2)c1 [Example 1074, N-(3-(2-(3-hydroxy-3-methylazetidin-1-yl)-6-morpholinopyridin-4-yl)-4-methylphenyl)-3-(methylsulfonyl)benzamide]
1.11 nM	COc1nnc(-c2cc(C(=O)Nc3ccnc(C(C)(F)F)c3)ccc2C)cc1N1CCOCC1 [Example 1019, N-(2-(1,1-difluoroethyl)pyridin-4-yl)-3-(6-methoxy-5-morpholinopyridazin-3-yl)-4-methylbenzamide]

same assay, conditions: read-out: b-Raf IC-50; Table 2; AlphaScreen, 3 hours reaction

IC50	Compound
24.8 nM	Cc1ncc(NC(=O)c2cccc(C(F)(F)F)c2)cc1-c1cnc(OC2CN(C)C2)c(N2CCOCC2)c1 [Example 321, N-(2-methyl-6′-((1-methylazetidin-3-yl)oxy)-5′-morpholino-[3,3′-bipyridin]-5-yl)-3-(trifluoromethyl)benzamide]
0.9 nM	CCOc1ncc(-c2cc(NC(=O)c3cnnc(C(C)(C)F)c3)ccc2C)cc1N1CCOCC1 [Example 304, N-(3-(6-ethoxy-5-morpholinopyridin-3-yl)-4-methylphenyl)-6-(2-fluoropropan-2-yl)pyridazine-4-carboxamide]
1.8 nM	COc1ccc(C(=O)Nc2ccc(C)c(-c3cc(N4CCOCC4)c(=O)n(C)c3)c2)cc1C(F)(F)F [Example 339, 4-methoxy-N-(4-methyl-3-(1-methyl-5-morpholino-6-oxo-1,6-dihydropyridin-3-yl)phenyl)-3-(trifluoromethyl)benzamide]
200 nM	Cc1ccc(C(=O)Nc2cccnc2)cc1-c1cc(N2CCOCC2)c(=O)n(C)c1 [Example 433, 4-methyl-3-(1-methyl-5-morpholino-6-oxo-1,6-dihydropyridin-3-yl)-N-(pyridin-3-yl)benzamide]
100 nM	CCN1CCN(c2cc(C(=O)Nc3cnc(C)c(-c4cc(N5CCOCC5)c(=O)n(C)c4)c3)cc(C(F)(F)F)c2)CC1 [Example 402, N-(1′,2-dimethyl-5′-morpholino-6′-oxo-1′,6′-dihydro-[3,3′-bipyridin]-5-yl)-3-(4-ethylpiperazin-1-yl)-5-(trifluoromethyl)benzamide]
3.1 nM	CCOc1ncc(-c2cc(NC(=O)c3ccnc(C(C)C)c3)cnc2C)cc1N1CCOCC1 [Example 252, N-(6′-ethoxy-2-methyl-5′-morpholino-[3,3′-bipyridin]-5-yl)-2-isopropylisonicotinamide]
0.5 nM	Cc1ccc(NC(=O)c2cccc(C(F)(F)F)c2)cc1-c1cc(N2CCOCC2)nc(-n2ccnc2)n1 [Example 33, N-(3-(2-(1H-imidazol-1-yl)-6-morpholinopyrimidin-4-yl)-4-methylphenyl)-3-(trifluoromethyl)benzamide]
3.9 nM	Cc1ncc(NC(=O)c2ccnc(C(C)(C)F)c2)cc1-c1cnc(F)c(N2CCOCC2)c1 [Example 298, N-(6′-fluoro-2-methyl-5′-morpholino-[3,3′-bipyridin]-5-yl)-2-(2-fluoropropan-2-yl)isonicotinamide]
53.1 nM	Cc1ccc(NC(=O)c2cc(C(F)(F)F)nn2C)cc1-c1cc(N2CCOCC2)c(=O)n(C)c1 [Example 369, 1-methyl-N-(4-methyl-3-(1-methyl-5-morpholino-6-oxo-1,6-dihydropyridin-3-yl)phenyl)-3-(trifluoromethyl)-1H-pyrazole-5-carboxamide]
1.7 nM	Cc1ncc(NC(=O)c2cccc(C(F)(F)F)c2)cc1-c1cnc(OC2CCCC(O)C2)c(N2CCOCC2)c1 (single isomer, unassigned) [Example 320, N-(6′-((3-hydroxycyclohexyl)oxy)-2-methyl-5′-morpholino-[3,3′-bipyridin]-5-yl)-3-(trifluoromethyl)benzamide]
1.4 nM	Cn1cc(-c2cc(NC(=O)c3cccc(C(F)(F)F)c3)cnc2Cl)cc(N2CCOCC2)c1=O [Example 407, N-(2-chloro-1′-methyl-5′-morpholino-6′-oxo-1′,6′-dihydro-[3,3-bipyridin]-5-yl)-3-(trifluoromethyl)benzamide]
0.5 nM	Cc1ccc(NC(=O)c2cccc(C(F)(F)F)c2)cc1-c1cc(N2CCOCC2)ccn1 [Example 111, N-(4-methyl-3-(4-morpholinopyridin-2-yl)phenyl)-3-(trifluoromethyl)benzamide]
5.6 nM	CCOc1ncc(-c2cc(NC(=O)c3ccnc(C(C)(C)C#N)c3)cnc2C)cc1N1CCOCC1 [Example 239, 2-(2-cyanopropan-2-yl)-N-(6′-ethoxy-2-methyl-5′-morpholino-[3,3′-bipyridin]-5-yl)isonicotinamide]
2400 nM	CCCN(C(=O)c1cccc(C(F)(F)F)c1)c1cnc(C)c(-c2cnc(OC3CCOCC3)c(N3CCOCC3)c2)c1 [Example 330, N-(2-methyl-5′-morpholino-6′-((tetrahydro-2H-pyran-4-yl)oxy)-[3,3′-bipyridin]-5-yl)-N-propyl-3-(trifluoromethyl)benzamide]
2.6 nM	CCOc1ncc(-c2cc(NC(=O)c3ccnc(C(C)(C)F)c3)cnc2C)cc1N1CCOCC1 [Example 253, N-(6′-ethoxy-2-methyl-5′-morpholino-[3,3′-bipyridin]-5-yl)-2-(2-fluoropropan-2-yl)isonicotinamide]
